From ChEMBL document CHEMBL4152237, “Identification of novel β-lactams and pyrrolidinone derivatives as selective Histamine-3 receptor (H3R) modulators as possible anti-obesity agents” (Eur J Med Chem, 2018) come the findings set out here.

Activity calls are given as the source filed them. The rule behind the calls is not given here.

One test addresses Histamine H3 receptor (Homo sapiens, UniProt Q9Y5N1). In words: Agonist activity at human H3R expressed in HEK293 cells harboring glosensor-22F cAMP plasmid DNA assessed as inhibition of forskolin-stimulated cAMP accumulation at 10 uM preincubated with cells followed by forskolin addition measured after 10 mins by luminescence assay relative to control. It is filed as functional, cell-based.

The target of test [1] is T1, 5-hydroxytryptamine receptor 2C (Homo sapiens) (UniProt P28335).
T1 sequence (whole entry): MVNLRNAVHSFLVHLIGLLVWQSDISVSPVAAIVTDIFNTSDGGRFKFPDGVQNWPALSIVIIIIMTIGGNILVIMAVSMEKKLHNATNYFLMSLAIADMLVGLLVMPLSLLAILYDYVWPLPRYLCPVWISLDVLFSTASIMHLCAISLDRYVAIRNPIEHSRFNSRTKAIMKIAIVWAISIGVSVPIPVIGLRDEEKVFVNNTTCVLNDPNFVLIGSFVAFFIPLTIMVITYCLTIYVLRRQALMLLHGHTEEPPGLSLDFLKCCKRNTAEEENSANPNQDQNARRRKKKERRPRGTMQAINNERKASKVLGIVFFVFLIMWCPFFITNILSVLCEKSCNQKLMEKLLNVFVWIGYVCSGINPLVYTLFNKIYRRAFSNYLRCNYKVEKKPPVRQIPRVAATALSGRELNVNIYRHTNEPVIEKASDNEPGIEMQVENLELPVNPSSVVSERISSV
In words: Agonist activity at human 5-HT2C expressed in HEK293 cells harboring luc2P/NFAT-RE plasmid at 10 uM after 6 to 8 hrs by luciferase reporter gene assay. The format is functional, cell-based. In general terms: In a reporter assay the amount or activity of a reporter protein is the signal.

Histamine H3 receptor, sequence (Q9Y5N1 whole entry): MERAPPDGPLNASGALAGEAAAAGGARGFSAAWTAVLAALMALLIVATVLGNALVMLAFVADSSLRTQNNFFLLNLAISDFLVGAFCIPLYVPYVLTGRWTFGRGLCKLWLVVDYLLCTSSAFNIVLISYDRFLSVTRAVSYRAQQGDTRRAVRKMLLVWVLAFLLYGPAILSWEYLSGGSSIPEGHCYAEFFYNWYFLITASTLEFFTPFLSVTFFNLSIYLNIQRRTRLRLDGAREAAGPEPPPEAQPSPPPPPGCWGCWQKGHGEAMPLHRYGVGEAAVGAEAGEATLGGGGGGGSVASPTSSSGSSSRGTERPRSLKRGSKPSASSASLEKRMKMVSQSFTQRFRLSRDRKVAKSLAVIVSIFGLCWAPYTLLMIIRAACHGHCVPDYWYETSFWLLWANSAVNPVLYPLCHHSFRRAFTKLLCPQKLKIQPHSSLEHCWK

On to `COc1ccc(C(C(=O)NC2CCCCC2)N2C(=O)C(I)=C(c3ccccc3)C23C=CC(=O)C=C3)cc1C` (configuration not stated), for which, at Histamine H3 receptor, the inhibition entry was “inactive”. In addition, the result in test [1] was inactive.
`O=C1C=C[C@]23C(c4ccccc4)=CC(=O)N2[C@H](c2ccc(Cl)cc2)C(=O)N[C@@H]3C1`: at Histamine H3 receptor, the inhibition result was “inactive”. The result in test [1] was inactive.
For `COc1ccc(N2C(=O)/C(=C\c3ccccc3)C2(C(=O)NC(C)(C)C)c2ccc(Br)cc2)cc1` (configuration not stated), the inhibition entry on Histamine H3 receptor was “inactive”. Besides, the result in test [1] was inactive.
For the compound `O=C1C=C[C@]23C(c4ccccc4)=CC(=O)N2[C@H](c2ccccc2)C(=O)N[C@@H]3C1`, the inhibition result at Histamine H3 receptor is “inactive”. The outcome in test [1] was inactive.
Turning to `O=C1C=C[C@]23C(c4ccccc4)=CC(=O)N2[C@H](c2ccc(F)cc2)C(=O)N[C@@H]3C1`, at Histamine H3 receptor, the inhibition result was “inactive”. Moreover, the outcome in test [1] was inactive.
On to `COc1ccccc1[C@@H]1C(=O)N[C@@H]2CC(=O)C=C[C@@]23C(c2ccccc2)=CC(=O)N13`, for which the inhibition entry on Histamine H3 receptor was “inactive”. In addition, the result in test [1] was inactive.
`O=C1C=CC2(C=C1)C(c1ccccc1)=C(I)C(=O)N2C(C(=O)NC1CCCCC1)c1cc2c(cc1Br)OCO2` (configuration not stated): at Histamine H3 receptor, the inhibition entry was “inactive”. In test [1], the result was inactive.
On to `COc1ccc(C2(Nc3cc(OC)c(OC)c(OC)c3)C(=O)N(C3CCCCC3)C(=O)/C2=C/c2ccccc2)cc1` (configuration not stated), for which the inhibition result on Histamine H3 receptor is “inactive”. The outcome in test [1] was inactive.
Regarding `O=C1C=CC2(C=C1)C(c1ccccc1)=C(I)C(=O)N2C(C(=O)NC1CCCCC1)c1ccccc1[N+](=O)[O-]` (configuration not stated), the inhibition result on Histamine H3 receptor is “inactive”. Moreover, the result in test [1] was inactive.
On to `COc1cc(N2C(=O)C(=Cc3ccccc3)C2(C(=O)NC(C)(C)C)c2ccc(Br)cc2)cc(OC)c1OC` (configuration not stated), for which the inhibition entry on Histamine H3 receptor was “inactive”. For the same compound, the result in test [1] was inactive.
For `O=C1C=C[C@]23C(c4ccccc4)=CC(=O)N2[C@H](c2cccc(Cl)c2)C(=O)N[C@@H]3C1`, the inhibition result on Histamine H3 receptor was “inactive”. The result in test [1] was inactive.
As for `CC(C)(C)NC(=O)C(c1cccc(Cl)c1)N1C(=O)C(I)=C(c2ccccc2)C12C=CC(=O)C=C2` (configuration not stated), the inhibition entry at Histamine H3 receptor was “inactive”. Further, the result in test [1] was inactive.
Turning to `COc1cc(NC2(c3ccc(Cl)c(F)c3)C(=O)N(C(C)(C)C)C(=O)/C2=C/c2ccccc2)cc(OC)c1OC` (configuration not stated), the inhibition result at Histamine H3 receptor is “inactive”. In test [1], the outcome was inactive.
`COc1ccc(NC2(c3cc(F)cc(F)c3)C(=O)N(C(C)(C)C)C(=O)/C2=C/c2ccccc2)cc1` (configuration not stated): the inhibition result at Histamine H3 receptor was “inactive”. In addition, the result in test [1] was inactive.
Take `Cc1cc(C)cc([C@@H]2C(=O)N[C@@H]3CC(=O)C=C[C@@]34C(c3ccccc3)=CC(=O)N24)c1`: the inhibition entry on Histamine H3 receptor is “inactive”. Moreover, the outcome in test [1] was inactive.
Consider `O=C1C=C[C@]23C(c4ccccc4)=CC(=O)N2[C@H](c2cc(F)c(F)c(F)c2)C(=O)N[C@@H]3C1`, for which, on Histamine H3 receptor, the inhibition result was “inactive”. Besides, the outcome in test [1] was inactive.
On to `COc1ccc(C2=C(c3ccccc3)C3(C=CC(=O)C=C3)N(C(C(=O)NC(C)(C)C)c3ccccc3C)C2=O)cc1` (configuration not stated), for which the inhibition entry on Histamine H3 receptor is “inactive”. For the same compound, the result in test [1] was inactive.
Turning to `O=C1C=C[C@]23C(c4ccccc4)=CC(=O)N2[C@H](c2ccc(Br)cc2)C(=O)N[C@@H]3C1`, the inhibition result on Histamine H3 receptor is “inactive”. Besides, the result in test [1] was inactive.
`COc1ccc(NC2(c3ccc(F)cc3)C(=O)N(C3CCCCC3)C(=O)/C2=C/c2ccccc2)cc1OC` (configuration not stated): the inhibition entry on Histamine H3 receptor was “inactive”. Moreover, in test [1], the result was inactive.
Take `COC1=CC2(C=C(OC)C1=O)C(c1ccccc1)=C(c1ccc(OC)c(OC)c1OC)C(=O)N2C(C(=O)NC1CCCCC1)c1cc(OC)c(OC)c(OC)c1` (configuration not stated): the inhibition result at Histamine H3 receptor was “inactive”. Further, the result in test [1] was inactive.
Consider `COC1=CC2(C=C(OC)C1=O)C(c1ccccc1)=C(I)C(=O)N2C(C(=O)NC1CCCCC1)c1ccc(OC)c(OC)c1OC` (configuration not stated), for which the inhibition result at Histamine H3 receptor was “inactive”. For the same compound, the result in test [1] was inactive.
As to `COc1ccc(C(C(=O)NC(C)(C)C)N2C(=O)C(I)=C(c3ccccc3)C23C=CC(=O)C=C3)cc1C` (configuration not stated), the inhibition entry on Histamine H3 receptor is “inactive”. In addition, the result in test [1] was inactive.
Take `COc1ccc(C2(Nc3cc(OC)c(OC)c(OC)c3)C(=O)N(C(C)(C)C)C(=O)/C2=C/c2ccccc2)cc1` (configuration not stated): on Histamine H3 receptor, the inhibition result is “inactive”. Also, the result in test [1] was inactive.
`COc1ccc(N2C(=O)/C(=C\c3ccccc3)C2(C(=O)NC(C)(C)C)c2ccc(C(F)(F)F)cc2)cc1` (configuration not stated): the inhibition entry on Histamine H3 receptor is “inactive”. Further, the result in test [1] was inactive.
Consider `COc1ccc(NC2(c3cccc(Cl)c3)C(=O)N(C(C)(C)C)C(=O)/C2=C/c2ccccc2)cc1` (configuration not stated), for which the inhibition entry at Histamine H3 receptor is “inactive”. Also, the result in test [1] was inactive.
As to `O=C1C=CC2(C=C1)C(c1ccccc1)=C(I)C(=O)N2C(C(=O)NC1CCCCC1)c1cccc([N+](=O)[O-])c1` (configuration not stated), the inhibition entry at Histamine H3 receptor was “inactive”. Also, the outcome in test [1] was inactive.
Take `COc1ccc(NC2(c3cc(F)c(F)c(F)c3)C(=O)N(C(C)(C)C)C(=O)/C2=C/c2ccccc2)cc1` (configuration not stated): on Histamine H3 receptor, the inhibition result is “inactive”. The result in test [1] was inactive.
Take `COc1ccc(N2C(=O)C(=Cc3ccccc3)C2(C(=O)NC2CCCCC2)c2ccccc2)cc1OC` (configuration not stated): the inhibition result on Histamine H3 receptor is “inactive”. The result in test [1] was inactive.
As to `COc1ccc(N2C(=O)/C(=C\c3ccccc3)C2(C(=O)NC2CCCCC2)c2cc(F)cc(F)c2)cc1OC` (configuration not stated), the inhibition result on Histamine H3 receptor was “inactive”. Also, the outcome in test [1] was inactive.
For the compound `COc1ccc(NC2(c3cc(C)cc(C)c3)C(=O)N(C(C)(C)C)C(=O)/C2=C/c2ccccc2)cc1` (configuration not stated), the inhibition result on Histamine H3 receptor was “inactive”. Further, the result in test [1] was inactive.
Turning to `COC1=CC2(C=C(OC)C1=O)C(c1ccccc1)=C(c1ccc(CO)cc1)C(=O)N2C(C(=O)NC1CCCCC1)c1ccc(OC)c(OC)c1OC` (configuration not stated), on Histamine H3 receptor, the inhibition entry was “inactive”. Further, in test [1], the outcome was inactive.
Regarding `Cc1ccccc1C(C(=O)NC(C)(C)C)N1C(=O)C(I)=C(c2ccccc2)C12C=CC(=O)C=C2` (configuration not stated), at Histamine H3 receptor, the inhibition entry is “inactive”. Also, the outcome in test [1] was inactive.
As for `COc1ccc(C(C(=O)NC2CCCCC2)N2C(=O)C=C(c3ccccc3)C23C=CC(=O)C=C3)cc1C` (configuration not stated), the inhibition result at Histamine H3 receptor was “inactive”. Also, the outcome in test [1] was inactive.
As for `Cc1ccc([C@@H]2C(=O)N[C@@H]3CC(=O)C=C[C@@]34C(c3ccccc3)=CC(=O)N24)cc1`, at Histamine H3 receptor, the inhibition entry is “inactive”. For the same compound, the result in test [1] was inactive.
As to `Cc1ccc(C(C(=O)NC(C)(C)C)N2C(=O)C(I)=C(c3ccccc3)C23C=CC(=O)C=C3)cc1` (configuration not stated), on Histamine H3 receptor, the inhibition entry was “inactive”. The outcome in test [1] was inactive.
For `COc1ccc(NC2(c3ccccc3)C(=O)N(C3CCCCC3)C(=O)/C2=C/c2ccccc2)cc1OC` (configuration not stated), at Histamine H3 receptor, the inhibition result is “inactive”. The outcome in test [1] was inactive.
Turning to `COc1ccc(N2C(=O)/C(=C\c3ccccc3)C2(C(=O)NC(C)(C)C)c2cccc(Cl)c2)cc1` (configuration not stated), on Histamine H3 receptor, the inhibition result was “inactive”. For the same compound, the outcome in test [1] was inactive.
Take `O=C1C=C[C@]23C(c4ccccc4)=CC(=O)N2[C@H](c2ccc(Cl)c(F)c2)C(=O)N[C@@H]3C1`: on Histamine H3 receptor, the inhibition result is “inactive”. In addition, the outcome in test [1] was inactive.
For the compound `COc1ccc(NC2(c3ccc(Cl)c(F)c3)C(=O)N(C(C)(C)C)C(=O)/C2=C/c2ccccc2)cc1` (configuration not stated), the inhibition entry on Histamine H3 receptor is “inactive”. Moreover, the outcome in test [1] was inactive.
Consider `COc1cc(NC2(c3cc(F)cc(F)c3)C(=O)N(C3CCCCC3)C(=O)/C2=C/c2ccccc2)cc(OC)c1OC` (configuration not stated), for which the inhibition entry on Histamine H3 receptor is “inactive”. Moreover, in test [1], the outcome was inactive.
In the case of `O=C1C=C[C@]23C(c4ccccc4)=CC(=O)N2[C@H](c2ccc(OC(F)(F)F)cc2)C(=O)N[C@@H]3C1`, the inhibition result at Histamine H3 receptor was “inactive”. Also, in test [1], the outcome was inactive.
As to `COc1ccc(C(C(=O)NC(C)(C)C)N2C(=O)C(I)=C(c3ccccc3)C23C=CC(=O)C=C3)cc1` (configuration not stated), the inhibition result on Histamine H3 receptor is “inactive”. The result in test [1] was inactive.
With `CC(C)(C)NC(=O)C(c1ccccc1Br)N1C(=O)C(I)=C(c2ccccc2)C12C=CC(=O)C=C2` (configuration not stated), the inhibition result at Histamine H3 receptor was “inactive”. For the same compound, the result in test [1] was inactive.
Consider `COc1cc(C(C(=O)NC2CCCCC2)N2C(=O)C(I)=C(c3ccccc3)C23C=CC(=O)C=C3)cc(OC)c1OC` (configuration not stated), for which, at Histamine H3 receptor, the inhibition entry was “inactive”. The result in test [1] was inactive.
In the case of `COc1cc(OC)c(C(C(=O)NC2CCCCC2)N2C(=O)C(c3ccc(CO)cc3)=C(c3ccccc3)C23C=CC(=O)C=C3)cc1OC` (configuration not stated), the inhibition entry on Histamine H3 receptor was “inactive”. The outcome in test [1] was inactive.
Regarding `COC1=CC2(C=C(OC)C1=O)C(c1ccccc1)=C(c1ccc(OC)cc1)C(=O)N2C(C(=O)NC1CCCCC1)c1cc(OC)c(OC)c(OC)c1` (configuration not stated), the inhibition result on Histamine H3 receptor was “inactive”. For the same compound, the outcome in test [1] was inactive.
